This test has as its system Streptococcus pyogenes (ATCC# 97-03 14289). Briefly: Anti-microbial screen (growth inhibition, OD 570 nm). It is filed as cell-based. The settings on record: growth in Todd Hewitt Broth, plates read at 570 nm at 0 time and 4 hours, color corrected. The procedure:
Streptococcus pyogenes (ATCC# 97-03 14289) was grown in Todd Hewitt Broth (THB) (Difco Laboratories #0492-17-6) overnight until reaching an optical density of (OD=0.636 @ 570 nm) by reading 0.1 ml in a 96 well microtiter plate in a Molecular Devices Thermomax. This preparation was kept frozen as stocks in 30% v/v glycerol in 1.5 ml aliquots at −70^mC. until use. Prior to experiments, […] aliquots were thawed and diluted into 50 ml 2×THB. 60 ul of this dilution was added to 92 wells of microtiter plate. To three wells THB (200 ul) was added to serve as a blank and a sterility control. Test compounds in DMSO and appropriate concentrations of DMSO were added to Growth/Solvent Controls at 0 time. Plates were read at 0 time at 570 nm in the Molecular Devices plate reader to obtain compounds correction factors for insoluble or colored compounds. Plates were read again at 4 hours.
Percent inhibition is calculated with the following formulae: [drawing 4]
Color correct=O.D. 0 hr−Blank 0 hr)−(Solvent Control 0 hr−Blank 0 hr)
% Inhibition=100−O.D. test compound 4 hr−Blank 4 hr−color correct O.D. growth/solvent control 4 hr−Blank 4 hr
Turning to `Cc1ccc(C(=O)N2CCc3c(sc(NC(=O)c4ccc(C(C)(C)C)cc4)c3C(=O)O)C2)c(C)c1`, the “% Inhibition” value stood at 82.83%.

On to `COc1cccc(C(=O)Nc2sc3c(c2C(=O)O)CCN(C(=O)c2ccc(F)c(F)c2)C3)c1`, for which the “% Inhibition” value stood at 75.77%.

For the compound `COc1cccc(C(=O)N2CCc3c(sc(NC(=O)[C@]45C[C@H]6C[C@@H](C[C@H](C6)C4)C5)c3C(=O)O)C2)c1OC`, the “% Inhibition” value is 68.91%.

Consider `CCCCOc1ccc(C(=O)Nc2sc3c(c2C(=O)O)CCN(C(=O)c2cc4ccccc4s2)C3)cc1`, for which the “% Inhibition” value is on record as 89.4%.

With `CCC(C(=O)Nc1sc2c(c1C(=O)O)CCN(C(=O)c1cc3ccccc3s1)C2)c1ccccc1` (stereo not shown), the “% Inhibition” value stood at 66.79%.

Consider `Cc1ccsc1C(=O)N1CCc2c(sc(NC(=O)c3ccc(C(C)(C)C)cc3)c2C(=O)O)C1`, for which the “% Inhibition” value was 68.74%.

On to `O=C(O)c1c(NC(=O)C2CCCCC2)sc2c1CCN(C(=O)c1cc3ccccc3s1)C2`, for which the “% Inhibition” value is 72.52%.

With `O=C(O)c1c(NC(=O)C2CCCCC2)sc2c1CCN(C(=O)/C=C/c1ccc(Cl)cc1)C2`, the “% Inhibition” value stood at 67.5%.

Take `Cc1ccc(C)c(CC(=O)N2CCc3c(sc(NC(=O)c4ccc5ccccc5c4)c3C(=O)O)C2)c1`: the “% Inhibition” value is on record as 67.34%.

`CC(C)C(=O)N1CCc2c(sc(NC(=O)c3ccc4ccccc4c3)c2C(=O)O)C1`: the “% Inhibition” value is 65.78%.

`COc1cccc(C(=O)Nc2sc3c(c2C(=O)O)CCN(C(=O)c2ccc(Cl)cc2)C3)c1`: the “% Inhibition” value is 90.32%.

On to `O=C(Nc1sc2c(c1C(=O)O)CCN(C(=O)c1ccc(F)c(F)c1)C2)c1ccc2ccccc2c1`, for which the “% Inhibition” value worked out at 87.61%.

As for `CC(CC(=O)Nc1sc2c(c1C(=O)O)CCN(C(=O)CC1CCCC1)C2)CC(C)(C)C` (stereo not shown), the “% Inhibition” value was determined as 81.9%.

In the case of `O=C(Nc1sc2c(c1C(=O)O)CCN(C(=O)c1ccc(F)cc1F)C2)c1ccc2ccccc2c1`, the “% Inhibition” value turned out to be 66.41%.

As to `Cc1ccsc1C(=O)N1CCc2c(sc(NC(=O)c3ccc(Cl)cc3)c2C(=O)O)C1`, the “% Inhibition” value was determined as 62.02%.

On to `O=C(Nc1sc2c(c1C(=O)O)CCN(C(=O)CCc1ccc(F)c(F)c1)C2)c1ccccc1Cl`, for which the “% Inhibition” value is listed as 94.52%.

As to `CCc1ccc(C(=O)Nc2sc3c(c2C(=O)O)CCN(C(=O)c2cc(OC)ccc2OC)C3)cc1`, the “% Inhibition” value was determined as 80.21%.

For the compound `CCCc1ccc(C(=O)Nc2sc3c(c2C(=O)O)CCN(C(=O)C2CCCCC2)C3)cc1`, the “% Inhibition” value worked out at 66.83%.

`O=C(Nc1sc2c(c1C(=O)O)CCN(C(=O)CC1CCCC1)C2)c1ccco1`: the “% Inhibition” value turned out to be 65.78%.

In the case of `O=C(Nc1sc2c(c1C(=O)O)CCN(C(=O)c1ccccc1Cl)C2)c1ccco1`, the “% Inhibition” value is on record as 60.48%.

Regarding `CC(C)(C)c1ccc(C(=O)Nc2sc3c(c2C(=O)O)CCN(C(=O)C2CCC2)C3)cc1`, the “% Inhibition” value is reported as 98.89%.

Take `CC(=O)Nc1ccc(C(=O)N2CCc3c(sc(NC(=O)c4ccc(C(C)(C)C)cc4)c3C(=O)O)C2)cc1`: the “% Inhibition” value came to 71.69%.

As to `Cc1ccc(C(=O)N2CCc3c(sc(NC(=O)c4ccc5ccccc5c4)c3C(=O)O)C2)cn1`, the “% Inhibition” value was 62.67%.

In the case of `CCC(C(=O)Nc1sc2c(c1C(=O)O)CCN(C(=O)c1ccc(Cl)cc1)C2)c1ccccc1` (stereo not shown), the “% Inhibition” value is 72.87%.

For `O=C(CCC1CCCC1)Nc1sc2c(c1C(=O)O)CCN(C(=O)C1CCCCC1)C2`, the “% Inhibition” value came to 65.37%.

With `COc1cccc(C(=O)Nc2sc3c(c2C(=O)O)CCN(C(=O)Cc2cc(C)ccc2C)C3)c1`, the “% Inhibition” value was found to be 62.32%.

Turning to `CSc1ccccc1C(=O)N1CCc2c(sc(NC(=O)c3ccc(C(C)(C)C)cc3)c2C(=O)O)C1`, the “% Inhibition” value came to 64.48%.

As for `CCCc1ccc(C(=O)Nc2sc3c(c2C(=O)O)CCN(C(=O)c2cccnc2OCC)C3)cc1`, the “% Inhibition” value is given as 92.34%.

In the case of `CCC(C(=O)Nc1sc2c(c1C(=O)O)CCN(C(=O)c1cccc3ccccc13)C2)c1ccccc1` (stereo not shown), the “% Inhibition” value is 62.49%.

Turning to `COc1ccccc1C(=O)Nc1sc2c(c1C(=O)O)CCN(C(=O)Cc1cc(C)ccc1C)C2`, the “% Inhibition” value is 61.95%.

Take `CC(=O)Nc1ccc(C(=O)N2CCc3c(sc(NC(=O)c4ccccc4)c3C(=O)O)C2)cc1`: the “% Inhibition” value is 90.8%.

Take `CCCc1ccc(C(=O)Nc2sc3c(c2C(=O)O)CCN(C(=O)c2ccccc2Cl)C3)cc1`: the “% Inhibition” value is on record as 86.38%.

For the compound `O=C(Nc1sc2c(c1C(=O)O)CCN(C(=O)c1ccccc1Cl)C2)c1ccc2ccccc2c1`, the “% Inhibition” value is 63.6%.

As to `COc1cccc(C(=O)N2CCc3c(sc(NC(=O)c4ccccc4Cl)c3C(=O)O)C2)c1OC`, the “% Inhibition” value stood at 60.53%.

Regarding `CCc1ccc(C(=O)Nc2sc3c(c2C(=O)O)CCN(C(=O)c2sccc2C)C3)cc1`, the “% Inhibition” value was found to be 60.88%.

`O=C(Nc1sc2c(c1C(=O)O)CCN(C(=O)c1cc3ccccc3s1)C2)c1ccco1`: the “% Inhibition” value is 96.65%.

Consider `CC(C)CC(=O)N1CCc2c(sc(NC(=O)c3ccc4ccccc4c3)c2C(=O)O)C1`, for which the “% Inhibition” value was 77.94%.

As for `CC(=O)Nc1cccc(C(=O)N2CCc3c(sc(NC(=O)c4ccccc4)c3C(=O)O)C2)c1`, the “% Inhibition” value is recorded as 96.85%.

For the compound `O=C(Nc1sc2c(c1C(=O)O)CCN(C(=O)c1ccc(C(F)(F)F)cc1)C2)c1c(F)cccc1F`, the “% Inhibition” value turned out to be 59.67%.

For the compound `Cc1ccccc1C(=O)N1CCc2c(sc(NC(=O)c3ccc4ccccc4c3)c2C(=O)O)C1`, the “% Inhibition” value worked out at 78.88%.

Turning to `CCc1ccc(C(=O)Nc2sc3c(c2C(=O)O)CCN(C(=O)C2CCCCC2)C3)cc1`, the “% Inhibition” value is recorded as 63.5%.

Regarding `O=C(Nc1sc2c(c1C(=O)O)CCN(C(=O)c1ccc(Cl)cc1)C2)c1ccc2ccccc2c1`, the “% Inhibition” value stood at 76.7%.

Turning to `CC(C)CC(=O)N1CCc2c(sc(NC(=O)c3ccc(C(C)(C)C)cc3)c2C(=O)O)C1`, the “% Inhibition” value turned out to be 64.48%.

`CCCc1ccc(C(=O)Nc2sc3c(c2C(=O)O)CCN(C(=O)CCc2ccc(F)c(F)c2)C3)cc1`: the “% Inhibition” value turned out to be 89.36%.

On to `O=C(Nc1sc2c(c1C(=O)O)CCN(C(=O)c1ccc(C(F)(F)F)cc1)C2)c1ccccc1`, for which the “% Inhibition” value was 72.63%.

Consider `O=C(Nc1sc2c(c1C(=O)O)CCN(C(=O)CC1CCCC1)C2)c1ccc(Cl)cc1`, for which the “% Inhibition” value is 82.59%.

For `Cc1ccccc1C(=O)N1CCc2c(sc(NC(=O)C3CCCCC3)c2C(=O)O)C1`, the “% Inhibition” value turned out to be 69.29%.

Consider `CCC(=O)N1CCc2c(sc(NC(=O)c3ccc4ccccc4c3)c2C(=O)O)C1`, for which the “% Inhibition” value is 62.98%.

Consider `CCc1ccc(C(=O)Nc2sc3c(c2C(=O)O)CCN(C(=O)CCc2ccc(F)c(F)c2)C3)cc1`, for which the “% Inhibition” value is listed as 85.13%.

Turning to `O=C(Nc1sc2c(c1C(=O)O)CCN(C(=O)c1ccco1)C2)c1ccccc1Cl`, the “% Inhibition” value worked out at 78.12%.

In the case of `C/C=C/C(=O)N1CCc2c(sc(NC(=O)c3ccccc3)c2C(=O)O)C1`, the “% Inhibition” value was 94.99%.

On to `CCc1ccc(C(=O)Nc2sc3c(c2C(=O)O)CCN(C(=O)c2cn(C)c4ccccc24)C3)cc1`, for which the “% Inhibition” value stood at 62.19%.

As to `CCC(C(=O)Nc1sc2c(c1C(=O)O)CCN(C(=O)Cc1cc(C)ccc1C)C2)c1ccccc1` (stereo not shown), the “% Inhibition” value was 80.75%.

As for `CCc1ccc(C(=O)Nc2sc3c(c2C(=O)O)CCN(C(=O)c2cccc4ccccc24)C3)cc1`, the “% Inhibition” value is 67.43%.

`COc1cccc(C(=O)Nc2sc3c(c2C(=O)O)CCN(C(=O)c2ccccc2SC)C3)c1`: the “% Inhibition” value amounted to 64.5%.

Take `O=C(Nc1sc2c(c1C(=O)O)CCN(C(=O)c1ccoc1)C2)c1ccccc1`: the “% Inhibition” value amounted to 94.53%.

In the case of `Cc1ccc(C(=O)N2CCc3c(sc(NC(=O)CC(C)CC(C)(C)C)c3C(=O)O)C2)c(C)c1` (stereo not shown), the “% Inhibition” value is listed as 81.9%.

For the compound `Cc1ccc(C(=O)N2CCc3c(sc(NC(=O)c4ccc(Cl)cc4)c3C(=O)O)C2)c(C)c1`, the “% Inhibition” value is 63.51%.

With `CCCSc1ncccc1C(=O)N1CCc2c(sc(NC(=O)c3ccc4ccccc4c3)c2C(=O)O)C1`, the “% Inhibition” value came out at 67.03%.

`COc1cccc(C(=O)Nc2sc3c(c2C(=O)O)CCN(C(=O)c2cccc4ccccc24)C3)c1`: the “% Inhibition” value is on record as 82.32%.

On to `Cc1ccc(C)c(CC(=O)N2CCc3c(sc(NC(=O)c4ccc(C(C)(C)C)cc4)c3C(=O)O)C2)c1`, for which the “% Inhibition” value worked out at 92.67%.

As for `CCCc1ccc(C(=O)Nc2sc3c(c2C(=O)O)CCN(C(=O)CC2CCCC2)C3)cc1`, the “% Inhibition” value is listed as 61.53%.

`COc1cccc(C(=O)N2CCc3c(sc(NC(=O)c4ccc5ccccc5c4)c3C(=O)O)C2)c1OC`: the “% Inhibition” value turned out to be 64.54%.

As for `CCCCOc1ccc(C(=O)Nc2sc3c(c2C(=O)O)CCN(C(=O)CC)C3)cc1`, the “% Inhibition” value stood at 65.64%.

On to `Cc1c(F)cccc1C(=O)N1CCc2c(sc(NC(=O)c3ccc4ccccc4c3)c2C(=O)O)C1`, for which the “% Inhibition” value is on record as 73.27%.

For `CC(=O)Nc1ccc(C(=O)N2CCc3c(sc(NC(=O)c4ccccc4Cl)c3C(=O)O)C2)cc1`, the “% Inhibition” value amounted to 76.33%.

Regarding `CCc1ccc(C(=O)Nc2sc3c(c2C(=O)O)CCN(C(=O)c2ccccc2SC)C3)cc1`, the “% Inhibition” value was 86.44%.

Turning to `CCCSc1ncccc1C(=O)N1CCc2c(sc(NC(=O)c3ccccc3Cl)c2C(=O)O)C1`, the “% Inhibition” value amounted to 94.82%.

In the case of `COc1ccc(OC)c(C(=O)N2CCc3c(sc(NC(=O)CCC4CCCC4)c3C(=O)O)C2)c1`, the “% Inhibition” value came to 86.05%.

Consider `O=C(Nc1sc2c(c1C(=O)O)CCN(C(=O)/C=C/c1ccc(Cl)cc1)C2)c1ccccc1`, for which the “% Inhibition” value amounted to 93.13%.

One may read the % Inhibition as the relative decrease from the control value, in per cent.

The record behind these values is patent US20030232994A1, “Bicyclic thiophene derivatives and combinatorial libraries thereof” (priority 2001, published 2003).
